# Data: ChEMBL document CHEMBL1131172 (J Med Chem, 1998)
# Experiments:
# SF-295 [1] = test: Inhibition of the growth of CNS cancer(SF-295) cell line at 0.01 uM; format: functional; details: Homo sapiens
# HCT-15 [2] = test: inhibition of the growth of colon cancer(HCT-15) cell line; format: functional; details: Homo sapiens
# NCI-H23 = test: inhibition of the growth of non-small-cell lung cancer (NCI-H23) cell line; format: functional; details: Homo sapiens
# UO-31 = test: inhibition of the growth of renal cancer(UO-31) cell line; format: functional; details: Homo sapiens
# Dihydrofolate reductase [3] = target: T1, Dihydrofolate reductase (Rattus norvegicus, UniProt Q920D2)
# T1 sequence (Q920D2 whole entry): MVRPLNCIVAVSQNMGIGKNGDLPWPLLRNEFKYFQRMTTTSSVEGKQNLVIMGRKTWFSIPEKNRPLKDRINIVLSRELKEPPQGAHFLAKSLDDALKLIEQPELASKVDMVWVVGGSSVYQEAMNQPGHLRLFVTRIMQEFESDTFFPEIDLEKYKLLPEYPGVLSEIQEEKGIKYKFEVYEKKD
# Description: Inhibitory activity against dihydrofolate reductase (DHFR) from rat liver
# IGROV-1 [4] = test: Inhibition of the growth of ovarian cancer(IGROVI) cell line at 0.01 uM; format: functional; details: Homo sapiens
# M14 = test: inhibition of the growth of melanoma cancer (M14) cell line; format: functional; details: Homo sapiens
# Dihydrofolate reductase [5] = target: T2, Dihydrofolate reductase (Pneumocystis carinii, UniProt P16184)
# T2 sequence (P16184 whole entry): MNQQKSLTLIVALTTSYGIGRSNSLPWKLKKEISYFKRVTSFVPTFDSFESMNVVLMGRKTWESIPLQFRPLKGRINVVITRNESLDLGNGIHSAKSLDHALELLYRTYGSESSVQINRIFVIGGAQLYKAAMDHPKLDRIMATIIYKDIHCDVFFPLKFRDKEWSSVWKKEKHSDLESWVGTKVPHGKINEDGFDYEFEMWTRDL
# Description: Inhibitory activity against dihydrofolate reductase (DHFR) from Pneumocystis carinii
# NCI-H522 = test: inhibition of the growth of non-small-cell lung cancer (NCI-H522) cell line; format: functional; details: Homo sapiens
# A549 [6] = test: inhibition of the growth of non-small-cell lung cancer (A549/ATCC) cell line; format: functional; details: Homo sapiens
# OVCAR-8 [7] = test: Inhibition of the growth of ovarian cancer(OVCAR-8) cell line at 0.01 uM; format: functional; details: Homo sapiens
# HCT-15 [8] = test: Inhibition of the growth of colon cancer(HCT-15) cell line at 0.01 uM; format: functional; details: Homo sapiens
# NCI/ADR-RES [9] = test: Inhibition of the growth of breast cancer (MCF7/ADR-RES) cell line at 0.01 uM; format: functional; details: Homo sapiens
# SNB-19 = test: inhibition of the growth of CNS cancer(SNB-19) cell line; format: functional; details: Homo sapiens
# OVCAR-8 [10] = test: inhibition of the growth of ovarian cancer(OVCAR-8) cell line; format: functional; details: Homo sapiens
# HCT-116 [11] = test: inhibition of the growth of colon cancer(HCT116) cell line; format: functional; details: Homo sapiens
# RPMI-8226 [12] = test: inhibition of the growth of leukemia (RPMI-8226) cell line; format: functional; details: Homo sapiens
# MDA-N [13] = test: inhibition of the growth of breast cancer(MDA-N) cell line; format: functional; details: Homo sapiens
# SF-295 [14] = test: inhibition of the growth of CNS cancer(SF-295) cell line; format: functional; details: Homo sapiens
# MCF7 = test: inhibition of the growth of breast cancer (MCF-7) cell line; format: functional; details: Homo sapiens
# CAKI-1 = test: inhibition of the growth of renal cancer(CAKI-1) cell line; format: functional; details: Homo sapiens
# NCI-H460 [15] = test: Inhibition of the growth of non-small-cell lung cancer (NCI-H460) cell line at 0.01 uM; format: functional; details: Homo sapiens
# HCT-116 [16] = test: Inhibition of the growth of colon cancer(HCT116) cell line at 0.01 uM; format: functional; details: Homo sapiens
# NCI-H460 [17] = test: inhibition of the growth of non-small-cell lung cancer (NCI-H460) cell line; format: functional; details: Homo sapiens
# SR = test: inhibition of the growth of leukemia(SR) cell line; format: functional; details: Homo sapiens
# SF-539 = test: inhibition of the growth of CNS cancer(SF-539) cell line; format: functional; details: Homo sapiens
# MDA-MB-435 [18] = test: inhibition of the growth of breast cancer (MDA-MB-435) cell line; format: functional; details: Homo sapiens
# SF-268 = test: inhibition of the growth of CNS cancer(SF-268) cell line; format: functional; details: Homo sapiens
# NCI/ADR-RES [19] = test: inhibition of the growth of breast cancer (MCF7/ADR-RES) cell line; format: functional; details: Homo sapiens
# MDA-MB-435 [20] = test: Inhibition of the growth of breast cancer (MDA-MB-435) cell line at 0.01 uM; format: functional; details: Homo sapiens
# IGROV-1 [21] = test: inhibition of the growth of ovarian cancer(IGROVI) cell line; format: functional; details: Homo sapiens
# KM12 = test: inhibition of the growth of colon cancer(KM-12) cell line; format: functional; details: Homo sapiens
# A549 [22] = test: Inhibition of the growth of non-small-cell lung cancer (A549/ATCC) cell line at 0.01 uM; format: functional; details: Homo sapiens
# [23] = target: T3, Bifunctional dihydrofolate reductase-thymidylate synthase (Toxoplasma gondii, UniProt Q07422)
# T3 sequence (Q07422 whole entry): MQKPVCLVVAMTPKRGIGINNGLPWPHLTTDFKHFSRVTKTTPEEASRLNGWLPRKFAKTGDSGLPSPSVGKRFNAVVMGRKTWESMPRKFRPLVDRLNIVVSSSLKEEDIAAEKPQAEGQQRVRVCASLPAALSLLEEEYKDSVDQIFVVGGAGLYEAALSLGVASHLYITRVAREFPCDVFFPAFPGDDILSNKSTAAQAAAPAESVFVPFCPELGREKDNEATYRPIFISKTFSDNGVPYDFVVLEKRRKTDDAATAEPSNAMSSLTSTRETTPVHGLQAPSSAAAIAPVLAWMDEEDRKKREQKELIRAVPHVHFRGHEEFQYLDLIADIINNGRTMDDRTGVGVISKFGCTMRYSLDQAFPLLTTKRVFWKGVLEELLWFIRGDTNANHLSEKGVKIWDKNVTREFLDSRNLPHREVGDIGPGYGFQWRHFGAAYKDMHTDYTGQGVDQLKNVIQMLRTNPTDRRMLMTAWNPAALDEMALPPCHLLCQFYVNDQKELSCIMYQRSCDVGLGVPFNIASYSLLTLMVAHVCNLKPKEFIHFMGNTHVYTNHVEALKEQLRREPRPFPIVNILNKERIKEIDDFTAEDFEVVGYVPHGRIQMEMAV
# Description: Inhibitory activity against dihydrofolate reductase (DHFR) from Toxoplasma gondii
# MDA-N [24] = test: Inhibition of the growth of breast cancer(MDA-N) cell line at 0.01 uM; format: functional; details: Homo sapiens
# RPMI-8226 [25] = test: Inhibition of the growth of leukemia (RPMI-8226) cell line at 0.01 uM; format: functional; details: Homo sapiens
# DU-145 = test: inhibition of the growth of prostate cancer(DU-145) cell line; format: functional; details: Homo sapiens
# SK-MEL-5 [26] = test: inhibition of the growth of melanoma cancer (SK-MEL-5) cell line; format: functional; details: Homo sapiens
# MOLT-4 = test: inhibition of the growth of leukemia (MOLT-4) cell line; format: functional; details: Homo sapiens
# 786-0 = test: inhibition of the growth of renal cancer(786-0) cell line; format: functional; details: Homo sapiens
# NCI-H322M = test: inhibition of the growth of non-small-cell lung cancer (NCI-H322M) cell line; format: functional; details: Homo sapiens
# SK-MEL-5 [27] = test: Inhibition of the growth of melanoma cancer (SK-MEL-5) cell line at 0.01 uM; format: functional; details: Homo sapiens
smiles,measurement,setting,value
CN(c1ccccc1)c1ccc2nc(N)nc(N)c2n1,inhibition at 0.01 µM,SF-295 [1],59%
same,GI50,HCT-15 [2],< 10 nM
same,GI50,NCI-H23,30 nM
same,GI50,UO-31,30 nM
same,IC50,Dihydrofolate reductase [3],1.3 nM
same,inhibition at 0.01 µM,IGROV-1 [4],53%
same,GI50,M14,10 nM
same,IC50,Dihydrofolate reductase [5],99.5 nM
same,GI50,NCI-H522,60 nM
same,GI50,A549 [6],< 10 nM
same,inhibition at 0.01 µM,OVCAR-8 [7],91%
same,inhibition at 0.01 µM,HCT-15 [8],66%
same,inhibition at 0.01 µM,NCI/ADR-RES [9],83%
same,GI50,SNB-19,40 nM
same,GI50,OVCAR-8 [10],< 10 nM
same,GI50,HCT-116 [11],< 10 nM
same,GI50,RPMI-8226 [12],< 10 nM
same,GI50,MDA-N [13],< 10 nM
same,GI50,SF-295 [14],< 10 nM
same,GI50,MCF7,140 nM
same,GI50,CAKI-1,10 nM
same,inhibition at 0.01 µM,NCI-H460 [15],80%
same,inhibition at 0.01 µM,HCT-116 [16],80%
same,GI50,NCI-H460 [17],< 10 nM
same,GI50,SR,50 nM
same,GI50,SF-539,< 10 nM
same,GI50,MDA-MB-435 [18],< 10 nM
same,GI50,SF-268,10 nM
same,GI50,NCI/ADR-RES [19],< 10 nM
same,inhibition at 0.01 µM,MDA-MB-435 [20],73%
same,GI50,IGROV-1 [21],< 10 nM
same,GI50,KM12,190 nM
same,inhibition at 0.01 µM,A549 [22],65%
same,IC50,[23],2.2 nM
same,inhibition at 0.01 µM,MDA-N [24],68%
same,inhibition at 0.01 µM,RPMI-8226 [25],59%
same,GI50,DU-145,120 nM
same,GI50,SK-MEL-5 [26],< 10 nM
same,GI50,MOLT-4,60 nM
same,GI50,786-0,220 nM
same,GI50,NCI-H322M,70 nM
same,inhibition at 0.01 µM,SK-MEL-5 [27],59%
COc1ccc(Nc2ccc3nc(N)nc(N)c3n2)cc1,IC50,Dihydrofolate reductase [3],3800 nM
same,IC50,Dihydrofolate reductase [5],90400 nM
same,IC50,[23],2800 nM
COc1ccc(OC)c(Nc2ccc3nc(N)nc(N)c3n2)c1,IC50,Dihydrofolate reductase [3],3600 nM
same,IC50,[23],730 nM
COc1ccc(Nc2ccc3nc(N)nc(N)c3n2)cc1OC,IC50,Dihydrofolate reductase [3],1100 nM
same,IC50,Dihydrofolate reductase [5],40400 nM
same,IC50,[23],680 nM
COc1cc(CNc2ccc3nc(N)nc(N)c3n2)cc(OC)c1OC,IC50,Dihydrofolate reductase [3],1400 nM
same,IC50,[23],490 nM
COc1ccccc1Sc1ccc2nc(N)nc(N)c2n1,IC50,Dihydrofolate reductase [3],230 nM
same,IC50,Dihydrofolate reductase [5],2200 nM
same,IC50,[23],58 nM
CN(c1ccc2nc(N)nc(N)c2n1)c1cccc2ccccc12,IC50,Dihydrofolate reductase [3],3300 nM
same,IC50,[23],2100 nM
COc1ccccc1S(=O)(=O)c1ccc2nc(N)nc(N)c2n1,IC50,Dihydrofolate reductase [3],1400 nM
same,IC50,Dihydrofolate reductase [5],3200 nM
same,IC50,[23],210 nM
COc1ccc(S(=O)(=O)c2ccc3nc(N)nc(N)c3n2)cc1,IC50,Dihydrofolate reductase [3],2000 nM
same,IC50,[23],1000 nM
